What was measured:
Assay type in all cases: biochemical
human recombinant FTase [1] = target: T1, human recombinant FTase (Homo sapiens, UniProt P49354+P49356); test: FTase inactivation, fluorescence assay of farnesylation of Ds-GCVLS after preincubation with inactivator; conditions: for inactivation of FTase (result in words): preincubation of FTase with compound, fluorescence assay
T1 construct: gift from Professor Patrick Casey, Duke University
Description: For example, the catalytic ability of FTase was monitored by an assay procedure in which FTase transferred the farnesyl group from FPP to a peptide substitute for Ras. The peptide substitute for Ras in this assay had structural elements in common with Ras, in particular a sequence of four amino acids cysteinyl-valyl-lysyl-serine (cys-val-lys-ser).
Inactivation of the enzyme FTase occurred when the FTase was preincubated with phenylglyoxal monohydrate, as evidenced by (1) a decrease in enzyme activity with increasing time of preincubation with phenylglyoxal monohydrate; and (2) a decrease in enzyme activity with increasing concentration of phenylglyoxal monohydrate. Because of interference of phenylglyoxal monohydrate with the fluorescence assay used, phenylglyoxal monohydrate was removed from the FTase preincubation mixture by ultrafiltration prior to the assay being performed.
FTase assay The fluoresence assay conditions were adapted from a published method. The FTase assay consisted of the measurement of the rate of FTase-catalyzed farnesylation of the fluorescent pentapeptide Ds-GCVLS. Upon farnesylation of the cysteine, the fluoresence emission at =505 nm of the dansyl group is enhanced due to the proximity of the hydrophobic isoprenoid group. Enzyme activity (approximately 60 nM FTase) was monitored at saturating substrate concentrations (10 M farnesyl pyrophosphate, ammonium salt, prepared by successive dilutions of a commercial 2.3 mM solution in methanol:10 mM aqueous NH4OH (7:3) into assay buffer, and 1.0 M Ds-GCVLS) by measurement of the increase in fluorescence emission observed at =505 nm as FTase farnesylated Ds-GCVLS for a period of 10 min. The assay buffer was selected for unreactivity toward PGO: 50 mM NaHEPES, 5 mM DTT, 5 mM MgCl2, 10 μM ZnCl2, and 0.2% n-octyl-β-D-glucopyranoside, pH 7.5. Fluorescence emission was measured with a JASCO FP-77 spectrofluorimeter fitted with a temperature-controlled cuvette holder connected to a 30 C. constant temperature bath. All fluoresence assays were conducted in a 4 mm 4 mm quartz cuvette with excitation at 340 nm.
Inactivation of FTase by PGO FTase was incubated at 30 C in the presence and absence of PGO at various concentrations in 50 mM NaHEPES, 5 mM MgCl2, 10 μM ZnCl2, and 0.2% n-octyl-β-D-glucopyranoside, pH 7.5 (i.e., assay buffer without DTT). Periodically, aliquots of the FTase-PGO reaction mixture were removed and assayed for FTase activity. Because of interference of PGO with the fluorometric assay, the aliquot was first subjected to solvent exchange by size exclusion membrane concentration to remove PGO. The solvent exchange utilized Microcon (Millipore Co.) 30 kD molecular weight cutoff microconcentrators. This also served to stop further inactivation of the enzyme by PGO. A 100-L aliquot of FTase-PGO reaction mixture was pipetted into a Microcon concentrator, which was centrifuged at 12,000 RPM for 8 min at 4 C. The concentrate was resuspended in […] of assay buffer, and centrifugation was repeated. The final concentrate was resuspended in 90 L of assay buffer, and the resulting solution was recovered by inversion of the concentrator and centrifugation at 3500 RPM for 3 min at 4 C. The solution was then assayed for FTase activity as described above. A control was handled as above, except that PGO was omitted from the incubation mixture.

human recombinant FTase [2] = target: T1, human recombinant FTase; test: as above
human recombinant FTase [3] = target: T1, human recombinant FTase; test: FPP protection of FTase against inactivation by PGO; conditions: FPP at various concentrations 2 min, then 10 mM PGO for 30 min at 30° C.; FIG. 3
Description: FIG. 3. Farnesyl pyrophosphate protection of FTase from inactivation by PGO. Points are determined by 100×(FTase activity after incubation with FPP and PGO)/(FTase activity after incubation with FPP without PGO). Assays were carried out after removal of FPP and PGO with a high molecular weight cutoff microconcentrator. Each point is the average of duplicate determinations.
FPP protection of FTase against inactivation by PGO FTase was treated with FPP at various concentrations in assay buffer without DTT for 2 min at 30° C. prior to incubation of the mixture with 10 mM PGO for 30 min at 30° C. The control was incubated with FPP at the corresponding concentration for the full length of time, but without PGO. The mixtures were subsequently subjected to microconcentration and assay, as described above.

CCCCCCCCCCCCCCCC(=O)OC[C@H](O)[C@H]1OC(=O)C(=O)C1=O [dehydroascorbic acid 6-palmitate]
inactivation of FTase (result in words) (human recombinant FTase [1]): rapidly inactivated FTase | FTase activity, % of the initial control value (human recombinant FTase [2]; 7 μM, 30 minutes of incubation, FTase 15 nM, 0.46% DMSO, Microcon step omitted): 75% | FTase activity, % of the initial control value (human recombinant FTase [2]; 28 μM, 30 minutes of incubation, FTase 15 nM, 0.46% DMSO, Microcon step omitted): 34% | FTase activity, % of the initial control value (human recombinant FTase [2]; 141 μM, 30 minutes of incubation, FTase 15 nM, 0.46% DMSO, Microcon step omitted): 22%

CCC(=O)C(C)=O [2,3-pentanedione]
inactivation of FTase (result in words) (human recombinant FTase [1]): rapidly inactivated FTase | FTase activity, % of the initial control value (human recombinant FTase [2]; 17 mM, approximately 30 minutes of incubation, 50 mM sodium borate, pH 7.5, FTase 15 nM, Microcon step omitted): 69% | FTase activity, % of the initial control value (human recombinant FTase [2]; 33 mM, approximately 30 minutes of incubation, 50 mM sodium borate, pH 7.5, FTase 15 nM, Microcon step omitted): 55% | FTase activity, % of the initial control value (human recombinant FTase [2]; 66 mM, approximately 30 minutes of incubation, 50 mM sodium borate, pH 7.5, FTase 15 nM, Microcon step omitted): 37%

O=CC(=O)c1ccccc1 [PGO, phenylglyoxal monohydrate]
FTase activity following preincubation with inactivator (human recombinant FTase [1]; 10 mM PGO for 10 min, PGO removed by microconcentrator, FIG. 1): virtual absence of enzyme activity | rate of inactivation of FTase (human recombinant FTase [1]; 10 mM PGO, compared with 20 mM, FIG. 2): slower but still quite rapid | inactivation of FTase (result in words) (human recombinant FTase [1]; listed as phenylglyoxal monohydrate, monohydrate): rapid and virtually complete inactivation | inactivation of FTase (result in words) (human recombinant FTase [1]; monohydrate): rapidly inactivated | effect of preincubation of FTase with FPP on inactivation by PGO (human recombinant FTase [3]): decreased the ability of PGO to inactivate FTase | rate of inactivation of FTase (human recombinant FTase [2]; 5 mM PGO, FIG. 2): the rate of inactivation was reduced

CCCCCCCCCCC(=O)C=O [2-oxododecanal]
time of incubation until FTase activity was lost (human recombinant FTase [1]; 35 mM 2-oxododecanal, 5% DMSO, data not shown): ≤ 2 min | inactivation of FTase (result in words) (human recombinant FTase [1]): rapidly inactivated FTase

CC(=O)c1ccc(-c2ccc(C(C)=O)cc2)cc1 [4,4′-diacetylbiphenyl, reference compound]
inactivation of FTase (result in words) (human recombinant FTase [1]): did not inactivated FTase | FTase activity compared with the control (human recombinant FTase [2]; 23 μM, 120 minutes of incubation, FTase 15 nM, 4.6% DMSO): the same as the control

CC(=O)C(=O)CC(C)CCC=C(C)C (stereo not shown) [5,9-dimethyl-8-decene-2,3-dione]
inactivation of FTase (result in words) (human recombinant FTase [1]): rapidly inactivated FTase | FTase activity, % of the initial control value (human recombinant FTase [2]; 17 μM, 30 minutes of incubation, FTase 15 nM, 4.6% DMSO, Microcon step omitted): 38% | FTase activity, % of the initial control value (human recombinant FTase [2]; 68 μM, 30 minutes of incubation, FTase 15 nM, 4.6% DMSO, Microcon step omitted): 18% | FTase activity, % of the initial control value (human recombinant FTase [2]; 171 μM, 30 minutes of incubation, FTase 15 nM, 4.6% DMSO, Microcon step omitted): 16%

O=CC(=O)c1ccc(-c2ccc(C(=O)C=O)cc2)cc1 [4,4′-biphenyldiglyoxaldehyde]
inactivation of FTase (result in words) (human recombinant FTase [1]): rapidly inactivated FTase | FTase activity, % of the initial control value (human recombinant FTase [2]; 23 μM, 30 minutes of incubation, FTase 15 nM, 4.6% DMSO): 68% | FTase activity, % of the initial control value (human recombinant FTase [2]; 93 μM, 30 minutes of incubation, FTase 15 nM, 4.6% DMSO): 11%
